Numbered stars: 1 amine (or outer) side, 2 acyl side, 3 side chain; on linkers, the order of the positions; unused ones are H or OH. Bridge positions count the residues as written; N and C are the ends. Square brackets hold non-standard residues; d marks the D form. Peptide text beside a SMILES is read from it. * marks the point of attachment. X1 = O=C([C@H](CCCCCC=[*:3])N[*:1])[*:2]; Nle = CCCC[C@H](N)C(=O)O; BrAc = O=C(CBr)*
What was measured:
[1] = system: E. coli lptD4213 (imp) cells; assay: Microscopy and morphology assay (cell length); format: cell-based; settings: 17fα 100 μM
Method: 1.8 Microscopy and morphology assay
Morphology assays were executed to assess the physiological change of E.coli cells upon exposure to different peptides. All steps in this protocol were performed under sterile conditions. For each assay, 20 mL of fresh MOPS medium was prepared (40 mM MOPS, 4 mM tricine, 0.01 mM FeSO-4, 9.5 mM NH4Cl, 0.276 mM K2SO4, 0.5 […]
The next day, the overnight culture […]
was diluted to an OD600 of 0.1. […]
min, after which the supernatant was discarded.
The frozen samples were thawed and 3 μL of […]
morphology of the cells was investigated. […]
accessed on February 2020).
The FtsQ(50˗276) stock solution was diluted to
NH4HCO3 (pH 7.6), 150 mM NaCl).
The gel was placed in the container
Colloidal Coomassie staining solution […]
was washed 3x for 30 min with water.
The gel pieces were washed with 200 μL water by vortex mixing for 30 s. Then the water was discarded. The gel pieces were then washed with […]
discarded and the procedure repeated once.
The supernatants were discarded and 200 μL of 100 %
ACN added, mixed and incubated for 30 s. […] They were then

E. coli 87 = format: cell-based, Escherichia coli
Method: 1.11 Checkerboard synergy assay
As described by Hsieh et al.,6 two-fold dilution series of cationic peptides were made in polypropylene microtiter plates (Ratiolab, L6018123, Dreieich, Germany) in 50 μL volume of MOPS medium/2% DMSO. Primary clinical isolates of Escherichia coli 87 were provided by Dr. Karin van Dijk, Amsterdam UMC. In a similar manner, two-fold dilution series of 17fα were made in polystyrene microtiter plates (Costar, REF3779, Corning NY, United States) in 70 μL volume of MOPS medium. Then, 50 μL of the 17fα series was transferred to the L8S1 containing polypropylene plate, resulting in a checkerboard titration of a L8S1 on the vertical axis and an 17fα on the horizontal axis. Mid-log phase cultures were diluted to OD600 0.1 and 10 μL culture was added to each well of the microtiter plate, resulting in a total volume of 110 μL and an OD600 of ~0.01 ([…]), and the OD600 was measured every 15 min for 12 h using the microplate reader. First, the MIC values of the compounds alone were determined as described previously. Similarly, the MIC values of the compound combination were determined (the fractional inhibitory concentrations (FIC))6. With these MIC values and FIC values, the fractional inhibitory concentration index (FICindex) was calculated as follows:
FIC = FICantibiotic + FICpeptide (1) […]

[2] = Toxicity test in uninfected zebrafish larvae; settings: 15 zebrafish per condition, L8S1 3.125 µM, 17fα 70 µM, n = 1 replicate
FtsQ(50–276) = FtsQ(50–276) (Escherichia coli, UniProt P06136); assay: LC/MS analysis of modified FtsQ(50–276); format: biochemical, E. coli; parameters: pET16b FtsQ(50˗276), a His6 fusion; made in house; host or cells: Escherichia coli BL21 DE3; settings: HPLC/MS, deconvolution; expected for reaction with 1 equiv ΔMW = 2122 g/mol; 37 °C, NH4HCO3 buffer pH 7.6
Chain of FtsQ(50–276) (P06136 50-276): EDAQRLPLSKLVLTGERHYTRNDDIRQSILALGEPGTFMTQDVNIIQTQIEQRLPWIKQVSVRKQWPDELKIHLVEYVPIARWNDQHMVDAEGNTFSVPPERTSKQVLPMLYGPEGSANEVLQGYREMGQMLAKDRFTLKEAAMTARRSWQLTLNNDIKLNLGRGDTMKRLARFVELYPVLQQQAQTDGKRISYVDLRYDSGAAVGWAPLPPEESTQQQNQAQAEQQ
Method: 1.6 LC/MS-analysis of modified FtsQ(50˗276)
To determine the reactivity of 17fα, FtsQ(50˗276) was diluted to a concentration of 100 μM in 20 mM NH4HCO3 buffer (pH 7.6, 150 mM NaCl). The peptide 17fα was diluted to a concentration of 250 μM in the same buffer.
Equal volumes of both solutions were mixed and incubated at 37 °C for the given time period (1 h or 3 h). The reaction was quenched by 4-fold dilution in ACN/H2O (1:1) + 0.1 % TFA.
20 μL of the resulting solution were injected and analysed by analytical reverse-phase HPLC (1260 Infinity II, Agilent Technology; flow rate of 0.3 mL·min-1, A: water with 0.1% FA, B: 80% iPrOH, 10% ACN, 10% H2O with 0.1% FA; AdvanceBio RP-mAB C4 column, 2.1×50 mm, 3.5 µm particle size) using a 10 min gradient (20-80% B) coupled to a mass spectrometer (Infinity Lab LC/MSD XT, Agilent Technology) using API-ES (MSD signal settings: Polarity: Positive; scan mass range: 500-3000; Fragmentor 70). Analytical HPLC chromatograms at 210 nm and MS spectra, masses and m/z ratios are shown in the appendix – analytics part. […]
Morphology assays were executed to assess the physiological change of E.coli cells upon exposure to different peptides. All steps in this protocol were performed under sterile conditions. For each assay, 20 mL of fresh MOPS medium was prepared (40 mM MOPS, 4 mM tricine, 0.01 mM FeSO-4, 9.5 mM NH4Cl, 0.276 mM K2SO4, 0.5

CCCC[C@@H]1NC(=O)[C@H](CO)NC(=O)[C@H](CC(C)C)NC(=O)[C@H](CCC(=O)O)NC(=O)[C@H](CC(N)=O)NC(=O)[C@@H](NC(=O)[C@H](C)NC(C)=O)CCCCCC=CCCCCC[C@@H](C(=O)N[C@@H](CCCCNC(=O)CBr)C(=O)N[C@@H](Cc2ccccc2)C(=O)N[C@@H](Cc2ccc(O)cc2)C(=O)N[C@@H](CCCNC(=N)N)C(=O)N[C@@H](CC(C)C)C(N)=O)NC(=O)CNC(=O)[C@@H]2CCCN2C(=O)[C@H](CCCNC(=N)N)NC(=O)[C@H]([C@@H](C)O)NC1=O [17fα] (Ac-A[X1]NELS[Nle]TRPG[X1]K(BrAc)FYRL-NH2; staple 2-12)
cell length median (1h) ([1]; 1 h): 4.7 μm | cell length mean (1h) ([1]; 1 h, phase contrast microscopy, ImageJ/ObjectJ): 5.3 μm | cell length mean (6h) ([1]; 6 h): 12.4 μm | cell length median (6h) ([1]; 6 h): 11.3 μm | FICindex (fractional inhibitory concentration index) (E. coli 87; 17fα in combination with L8S1, checkerboard synergy assay, OD600 after 12 h, MIC = 90% growth inhibition, from averages of MICs (L8S1 n = 3, 17fα n = 5), ≤ 0.5 synergistic): 0.33 | inhibitor concentration required for growth inhibition (E. coli 87; clinical multidrug-resistant E. coli 87, MOPS medium, OD600): > 100 µM | Surviving zebrafish, Day 1 [2]: 15 | Surviving zebrafish, Day 2 [2]: 15 | ΔMW of FtsQ(50–276) after treatment (obtained mass difference) (FtsQ(50–276)): 2124 g/mol

— publication PMC9413201, “Covalent Proteomimetic Inhibitor of the Bacterial FtsQB Divisome Complex” (Journal of the American Chemical Society, 2022)
